Data: US4772586A, “Novel derivatives of arginine vasopressin antagonists” (Medical College of Ohio, priority 1986, dated 1988)
*1 amine or outer side, *2 acyl side, *3 side chain or, on linkers, in order; H or OH if unused. Where a SMILES comes first, the peptide text is derived from it. Bridges are numbered along the chain shown (N, C = ends). [ ]: non-standard residue; d: D form. The star is where a group is joined. Ethylenediamine = C(CN[*:2])N[*:1]; X1 = O=C(CC1(S[*:2])CCCCC1)[*:1]; NH(CH2)4NH2 = NCCCCN*; NHCH2CH2OH = OCCN*

Assays:
[1] = system: antidiuretic response to arginine vasopressin; test: Antagonism of the antidiuretic response to arginine vasopressin (Anti-ADH); format: in vivo, rats; settings: estimated in vivo pA2
Experimental: Activity as antidiuretic agonists was determined by intravenous injection of the compounds being evaluated in ethanol-anesthesized water-loaded rats in accordance with Sawyer, Endocrinology, vol. 63 (1958) at 694. Antagonism of the antidiuretic response to subsequent injections of arginine vasopressin was tested by the method of Sawyer et al., Science, vol. 212 (1981) at 49.
(§1) Antagonistic potencies were determined and expressed as "effective doses" and pA2 values. The "effective dose" is defined as the dose (in nanomoles per kilogram) that reduces the response seen from 2x units of agonist injected 20 min after the dose of antagonist to the response with 1x units of agonist. Estimated in vivo "pA2 " values represent the negative logarithms of the effective doses, divided by the estimated volume of distribution (67 ml/kg).

[2] = system: vasopressor response to arginine vasopressin; test: Antagonism to the vasopressor response (Anti-VP); format: in vivo; settings: estimated in vivo pA2
Experimental: Antagonism to the vasopressor response was estimated in accordance with Dyckes et al., J. Med. Chem., vol. 17 (1974) at 969. The values are expressed as pA2 values, defined as in Schild et al., Br. J. Pharmacol., vol. 2 (1947) at 189.
as §1

Structure (SMILES) | Anti-ADH Potency pA2 ([1]; Table 2) | Anti-VP Potency pA2 ([2]; Table 2) | Anti-ADH Potency pA2 ([1]; Table 4) | Anti-VP Potency pA2 ([2]; Table 4, ^+ = mixed)
CC[C@H](C)[C@@H]1NC(=O)[C@H](Cc2ccccc2)NC(=O)[C@@H](Cc2ccccc2)NC(=O)CC2(CCCCC2)SSC[C@@H](C(=O)N2CCC[C@H]2C(=O)N[C@@H](CCCNC(=N)N)C(=O)N[C@@H](CO)C(N)=O)NC(=O)[C@H](CC(N)=O)NC1=O [Ser(NH2), [1-(beta-mercapto-beta,beta-cyclopentamethylenepropionic acid), 2-D-phenylalanine, 4-isoleucine, 9-serinamide]-arginine vasopressin] ([dF]FINCPRS-NH2; linker N-5 via X1) | 8.10 ± 0.07 | 8.10 ± 0.08 | – | –
CC[C@H](C)[C@@H]1NC(=O)[C@H](Cc2ccccc2)NC(=O)[C@@H](Cc2ccccc2)NC(=O)CC2(CCCCC2)SSC[C@@H](C(=O)N2CCC[C@H]2C(=O)N[C@@H](CCCNC(=N)N)C(=O)N[C@H](C(N)=O)[C@@H](C)O)NC(=O)[C@H](CC(N)=O)NC1=O [Thr(NH2), [1-(beta-mercapto-beta,beta-cyclopentamethylenepropionic acid), 2-D-phenylalanine, 4-isoleucine, 9-threoinamide]-arginine vasopressin] ([dF]FINCPRT-NH2; linker N-5 via X1) | 7.39 ± 0.04 | 7.64 ± 0.11 | – | –
CC[C@H](C)[C@@H]1NC(=O)[C@H](Cc2ccccc2)NC(=O)[C@@H](Cc2ccccc2)NC(=O)CC2(CCCCC2)SSC[C@@H](C(=O)N2CCC[C@H]2C(=O)N[C@@H](CCCNC(=N)N)C(=O)N[C@@H](Cc2ccc(O)cc2)C(N)=O)NC(=O)[C@H](CC(N)=O)NC1=O [Tyr(NH2), [1-(beta-mercapto-beta,beta-cyclopentamethylenepropionic acid), 2-D-phenylalanine, 4-isoleucine, 9-tyrosinamide]-arginine vasopressin] ([dF]FINCPRY-NH2; linker N-5 via X1) | 7.85 ± 0.06 | 7.27 ± 0.05 | – | –
CC[C@H](C)[C@@H]1NC(=O)[C@H](Cc2ccccc2)NC(=O)[C@@H](Cc2ccccc2)NC(=O)CC2(CCCCC2)SSC[C@@H](C(=O)N2CCC[C@H]2C(=O)N[C@@H](CCCNC(=N)N)C(=O)N[C@H](C(N)=O)C(C)C)NC(=O)[C@H](CC(N)=O)NC1=O [Val(NH2), [1-(beta-mercapto-beta,beta-cyclopentamethylenepropionic acid), 2-D-phenylalanine, 4-isoleucine, 9-valinamide]-arginine vasopressin] ([dF]FINCPRV-NH2; linker N-5 via X1) | 8.11 ± 0.11 | 7.66 ± 0.10 | – | –
COc1ccc(C[C@@H]2NC(=O)CC3(CCCCC3)SSC[C@@H](C(=O)N3CCC[C@H]3C(=O)N[C@@H](CCCNC(=N)N)C(=O)NCCN)NC(=O)[C@H](CC(N)=O)NC(=O)[C@H](CCC(N)=O)NC(=O)[C@H](Cc3ccccc3)NC2=O)cc1 [[1(beta-mercapto-beta,beta-cyclopentamethylenepropionic acid), 2-(O-methyl)tyrosine, 8-arginine-N-(beta-amino)ethylamide, 9-desglycinamide] vasopressin] (Y(Me)FQNCPR-Ethylenediamine; linker N-5 via X1) | – | – | ~ 6.3 | 8.75 ± 0.06
CNC(=O)[C@H](CCCNC(=N)N)NC(=O)[C@@H]1CCCN1C(=O)[C@@H]1CSSC2(CCCCC2)CC(=O)N[C@@H](Cc2ccc(OC)cc2)C(=O)N[C@@H](Cc2ccccc2)C(=O)N[C@@H](CCC(N)=O)C(=O)N[C@@H](CC(N)=O)C(=O)N1 [[1-(beta-mercapto-beta,beta-cyclopentamethylenepropionic acid), 2-(O-methyl)tyrosine, 8-arginine-N-methylamide, 9-desglycinamide] vasopressin] (Y(Me)FQNCPR-NHMe; linker N-5 via X1) | – | – | ~ 5.9 | 8.73 ± 0.02
CCOc1ccc(C[C@H]2NC(=O)CC3(CCCCC3)SSC[C@@H](C(=O)N3CCC[C@H]3C(=O)N[C@@H](CCCNC(=N)N)C(=O)NCCN)NC(=O)[C@H](CC(N)=O)NC(=O)[C@H]([C@@H](C)CC)NC(=O)[C@H](Cc3ccccc3)NC2=O)cc1 [[1-(beta-mercapto-beta,beta-cyclopentamethylenepropionic acid), 2-D-(O-ethyl)tyrosine, 4-isoleucine, 8-arginine-N-(beta-amino)ethylamide, 9-desglycinamide] vasopressin] ([dY](Et)FINCPR-Ethylenediamine; linker N-5 via X1) | – | – | 8.00 ± 0.12 | 8.33 ± 0.06
CCOc1ccc(C[C@H]2NC(=O)CC3(CCCCC3)SSC[C@@H](C(=O)N3CCC[C@H]3C(=O)N[C@@H](CCCNC(=N)N)C(=O)NCCO)NC(=O)[C@H](CC(N)=O)NC(=O)[C@H]([C@@H](C)CC)NC(=O)[C@H](Cc3ccccc3)NC2=O)cc1 [[1-(beta-mercapto-beta,beta-cyclopentamethylenepropionic acid), 2-D-(O-ethyl)tyrosine, 4-isoleucine, 8-arginine-N-(beta-hydroxy)ethylamide, 9-desglycinamide] vasopressin] ([dY](Et)FINCPR-NHCH2CH2OH; linker N-5 via X1) | – | – | 7.82 ± 0.06 | 7.89 ± 0.09
CCOc1ccc(C[C@H]2NC(=O)CC3(CCCCC3)SSC[C@@H](C(=O)N3CCC[C@H]3C(=O)N[C@@H](CCCNC(=N)N)C(=O)NCCCCN)NC(=O)[C@H](CC(N)=O)NC(=O)[C@H]([C@@H](C)CC)NC(=O)[C@H](Cc3ccccc3)NC2=O)cc1 [[1-(beta-mercapto-beta,beta-cyclopentamethylenepropionic acid), 2-D-(O-ethyl)tyrosine, 4-isoleucine, 8-arginine-N-(delta-amino)butylamide,9-desglycinamide] vasopressin] ([dY](Et)FINCPR-{NH(CH2)4NH2}; linker N-5 via X1) | – | – | 7.68 ± 0.05 | 7.78 ± 0.4
CCOc1ccc(C[C@H]2NC(=O)CC3(CCCCC3)SSC[C@@H](C(=O)N3CCC[C@H]3C(=O)N[C@@H](CCCNC(=N)N)C(=O)NCC(=O)NCCN)NC(=O)[C@H](CC(N)=O)NC(=O)[C@H]([C@@H](C)CC)NC(=O)[C@H](Cc3ccccc3)NC2=O)cc1 [[1-(beta-mercapto-beta,beta-cyclopentamethylenepropionic acid), 2-D-(O-ethyl)tyrosine, 4-isoleucine, 9-glycine-N-(beta-amino)ethylamide]-arginine vasopressin] ([dY](Et)FINCPRG-Ethylenediamine; linker N-5 via X1) | – | – | 7.86 ± 0.04 | 8.07 ± 0.03
CCOc1ccc(C[C@H]2NC(=O)CC3(CCCCC3)SSC[C@@H](C(=O)N3CCC[C@H]3C(=O)N[C@@H](CCCNC(=N)N)C(=O)N[C@@H](C)C(=O)NC)NC(=O)[C@H](CC(N)=O)NC(=O)[C@H](C(C)C)NC(=O)[C@H](Cc3ccccc3)NC2=O)cc1 [[1-(beta-mercapto-beta,beta-cyclopentamethylenepropionic acid), 2-D-(O-ethyl)tyrosine, 4-valine, 9-alanine-N-methylamide]-arginine vasopressin] ([dY](Et)FVNCPRA-NHMe; linker N-5 via X1) | – | – | 7.92 ± 0.06 | 8.17 ± 0.04
CCOc1ccc(C[C@H]2NC(=O)CC3(CCCCC3)SSC[C@@H](C(=O)N3CCC[C@H]3C(=O)N[C@@H](CCCNC(=N)N)C(=O)NCC(=O)NC)NC(=O)[C@H](CC(N)=O)NC(=O)[C@H](C(C)C)NC(=O)[C@H](Cc3ccccc3)NC2=O)cc1 [[1-(beta-mercapto-beta,beta-cyclopentamethylenepropionic acid), 2-D-(O-ethyl)tyrosine, 4-valine, 9-glycine-N-methylamide]-arginine vasopressin] ([dY](Et)FVNCPRG-NHMe; linker N-5 via X1) | – | – | 7.58 ± 0.06 | 7.71 ± 0.04
CCNC(=O)CNC(=O)[C@H](CCCNC(=N)N)NC(=O)[C@@H]1CCCN1C(=O)[C@@H]1CSSC2(CCCCC2)CC(=O)N[C@H]([C@H](C)CC)C(=O)N[C@@H](Cc2ccccc2)C(=O)N[C@@H]([C@@H](C)CC)C(=O)N[C@@H](CC(N)=O)C(=O)N1 [[1-(beta-mercapto-beta,beta-cyclopentamethylenepropionic acid), 2-D-isoleucine, 4-isoleucine, 9-glycine-N-ethylamide]-arginine vasopressin] ([dI]FINCPRG-NHEt; linker N-5 via X1) | – | – | 7.86 ± 0.05 | 6.54 ± 0.11
CC[C@H](C)[C@@H]1NC(=O)[C@H](Cc2ccccc2)NC(=O)[C@@H](Cc2ccccc2)NC(=O)CC2(CCCCC2)SSC[C@@H](C(=O)N2CCC[C@H]2C(=O)N[C@@H](CCCNC(=N)N)C(=O)NCCN)NC(=O)[C@H](CC(N)=O)NC1=O [[1-(beta-mercapto-beta,beta-cyclopentamethylenepropionic acid), 2-D-phenylalanine, 4-isoleucine, 8-arginine-N-(beta-amino)ethylamide, 9-desglycinamide] vasopressin] ([dF]FINCPR-Ethylenediamine; linker N-5 via X1) | – | – | 8.11 ± 0.06 | 7.89 ± 0.04
